Values of other authors in patent publication US5505931A, “Acid cleavable compounds, their preparation and use as bifunctional acid-labile crosslinking agents” (The Dow Chemical Company, priority 1993, dated 1996).

Tested on: tumor
Conditions: unconjugated controls

Structure (SMILES): COc1cccc2c1C(=O)c1c(O)c3c(c(O)c1C2=O)C[C@@](O)(C(C)=O)C[C@@H]3O[C@H]1C[C@H](N)[C@H](O)[C@H](C)O1 [daunomycin]
- response in control experiments: inferior response
